Where two headings read alike, the source gives them in different places.
Tests used:
[1] = test system: E. coli GC 2231; test: MIC, broth microdilution; conditions: Escherichia coli
[2] = test system: E. coli GC 2235; test: MIC, broth microdilution; conditions: Escherichia coli
[3] = test system: E. coli GC 2233; test: MIC, broth microdilution; conditions: Escherichia coli
[4] = test system: E. coli GC 2270; test: MIC, broth microdilution; conditions: Escherichia coli
[5] = test system: E. coli GC 4560; test: MIC, broth microdilution; conditions: Escherichia coli
[6] = test system: E. coli GC 6465; test: MIC, broth microdilution; conditions: Escherichia coli
[7] = test system: E. coli GC 1073; test: MIC, broth microdilution; conditions: Escherichia coli
[8] = test system: S. typhimurium GC 2172; test: MIC, broth microdilution; conditions: Salmonella enterica, TYPHIMURIUM
[9] = test system: S. aureus GC 6466; test: MIC, broth microdilution; conditions: Staphylococcus aureus
[10] = test system: S. aureus GC 6467; test: MIC, broth microdilution; conditions: Staphylococcus aureus
[11] = test system: S. aureus GC 1079; test: MIC, broth microdilution; conditions: Staphylococcus aureus
[12] = test system: S. aureus GC 4536; test: MIC, broth microdilution; conditions: Staphylococcus aureus
[13] = test system: S. aureus GC 2216; test: MIC, broth microdilution; conditions: Staphylococcus aureus
[14] = test system: S. aureus GC 6469; test: MIC, broth microdilution; conditions: Staphylococcus aureus
[15] = test system: E. faecalis GC 2242; test: MIC, broth microdilution; conditions: Enterococcus faecalis
[16] = test system: E. faecium GC 4556; test: MIC, broth microdilution; conditions: Enterococcus faecium
[17] = test system: E. faecium GC 2243; test: MIC, broth microdilution; conditions: Enterococcus faecium
[18] = test system: c. albicans GC 3066; test: MIC, broth microdilution
[19] = test system: E. coli; test: Range of MIC for E. coli strains; conditions: Escherichia coli
[20] = test system: Staph.; test: Range of MIC for Staph. strains, including MRSA; conditions: Staphylococcus aureus

CN(C)c1cc(NC(=O)CN(C(=O)OCOC(=O)C2CCCCC2)C(C)(C)C)c(O)c2c1C[C@H]1C[C@H]3[C@H](N(C)C)C(O)=C(C(N)=O)C(=O)[C@@]3(O)C(O)=C1C2=O [Example 50, ({[(2-{[(5aR,6aS,7S,10aS)-9-(aminocarbonyl)-4,7-bis(dimethylamino)-1,8,10a,11-tetrahydroxy-10,12-dioxo-5,5a,6,6a,7,10,10a,12-octahydrotetracen-2-yl]amino}-2-oxoethyl)(tert-butyl)amino]carbonyl}oxy)methyl cyclohexanecarboxylate]
64 µg/mL: MIC ([1]; GC2231, read-out: MINIMAL INHIBITORY CONCENTRATION MIC, Water)
2 µg/mL: MIC ([5]; GC4560, read-out: MINIMAL INHIBITORY CONCENTRATION MIC, Human Serum) | MIC ([6]; GC6465, read-out: MINIMAL INHIBITORY CONCENTRATION MIC, Mouse Serum) | MIC ([7]; GC1073, read-out: MINIMAL INHIBITORY CONCENTRATION MIC, Mouse Serum) | MIC ([10]; GC6467, read-out: MINIMAL INHIBITORY CONCENTRATION MIC, Water) | MIC ([11]; GC1079, read-out: MINIMAL INHIBITORY CONCENTRATION MIC, Water) | MIC ([13]; GC2216, read-out: MINIMAL INHIBITORY CONCENTRATION MIC, Water) | MIC ([14]; GC6469, read-out: MINIMAL INHIBITORY CONCENTRATION MIC, Water) | MIC ([15]; GC2242, read-out: MINIMAL INHIBITORY CONCENTRATION MIC, Water) | MIC ([16]; GC4556, read-out: MINIMAL INHIBITORY CONCENTRATION MIC, Water)
> 64 µg/mL: MIC ([6]; GC6465, read-out: MINIMAL INHIBITORY CONCENTRATION MIC, Water) | MIC ([8]; read-out: MINIMAL INHIBITORY CONCENTRATION MIC, Water) | MIC ([18]; Candida albicans, GC3066, read-out: MINIMAL INHIBITORY CONCENTRATION MIC)
1 to 2 µg/mL: MIC ([19]; 20 h, read-out: Range of MIC, E. coli (Mouse Serum))
4 µg/mL: MIC ([2]; GC2235, read-out: MINIMAL INHIBITORY CONCENTRATION MIC, Human Serum) | MIC ([5]; GC4560, read-out: MINIMAL INHIBITORY CONCENTRATION MIC, Water) | MIC ([8]; read-out: MINIMAL INHIBITORY CONCENTRATION MIC, Mouse Serum)
32 to 64 µg/mL: MIC ([19]; read-out: Minimum inhibitory concentration (MIC), E. coli (water)) | MIC ([19]; read-out: Range of MIC, E. coli (Water))
0.25 µg/mL: MIC ([9]; GC6466, read-out: MINIMAL INHIBITORY CONCENTRATION MIC, Human Serum) | MIC ([9]; GC6466, read-out: MINIMAL INHIBITORY CONCENTRATION MIC, Mouse Serum) | MIC ([9]; GC6466, read-out: MINIMAL INHIBITORY CONCENTRATION MIC, Water) | MIC ([10]; GC6467, read-out: MINIMAL INHIBITORY CONCENTRATION MIC, Human Serum) | MIC ([10]; GC6467, read-out: MINIMAL INHIBITORY CONCENTRATION MIC, Mouse Serum) | MIC ([12]; GC4536, read-out: MINIMAL INHIBITORY CONCENTRATION MIC, Human Serum) | MIC ([12]; GC4536, read-out: MINIMAL INHIBITORY CONCENTRATION MIC, Mouse Serum) | MIC ([17]; GC2243, read-out: MINIMAL INHIBITORY CONCENTRATION MIC, Human Serum) | MIC ([17]; GC2243, read-out: MINIMAL INHIBITORY CONCENTRATION MIC, Mouse Serum)
0.5 µg/mL: MIC ([5]; GC4560, read-out: MINIMAL INHIBITORY CONCENTRATION MIC, Mouse Serum) | MIC ([11]; GC1079, read-out: MINIMAL INHIBITORY CONCENTRATION MIC, Human Serum) | MIC ([11]; GC1079, read-out: MINIMAL INHIBITORY CONCENTRATION MIC, Mouse Serum) | MIC ([12]; GC4536, read-out: MINIMAL INHIBITORY CONCENTRATION MIC, Water) | MIC ([13]; GC2216, read-out: MINIMAL INHIBITORY CONCENTRATION MIC, Human Serum) | MIC ([17]; GC2243, read-out: MINIMAL INHIBITORY CONCENTRATION MIC, Water)
1 µg/mL: MIC ([1]; GC2231, read-out: MINIMAL INHIBITORY CONCENTRATION MIC, Mouse Serum) | MIC ([2]; GC2235, read-out: MINIMAL INHIBITORY CONCENTRATION MIC, Mouse Serum) | MIC ([3]; GC2233, read-out: MINIMAL INHIBITORY CONCENTRATION MIC, Mouse Serum) | MIC ([4]; GC2270, read-out: MINIMAL INHIBITORY CONCENTRATION MIC, Mouse Serum) | MIC ([13]; GC2216, read-out: MINIMAL INHIBITORY CONCENTRATION MIC, Mouse Serum) | MIC ([14]; GC6469, read-out: MINIMAL INHIBITORY CONCENTRATION MIC, Human Serum) | MIC ([14]; GC6469, read-out: MINIMAL INHIBITORY CONCENTRATION MIC, Mouse Serum) | MIC ([15]; GC2242, read-out: MINIMAL INHIBITORY CONCENTRATION MIC, Human Serum) | MIC ([15]; GC2242, read-out: MINIMAL INHIBITORY CONCENTRATION MIC, Mouse Serum) | MIC ([16]; GC4556, read-out: MINIMAL INHIBITORY CONCENTRATION MIC, Human Serum) | MIC ([16]; GC4556, read-out: MINIMAL INHIBITORY CONCENTRATION MIC, Mouse Serum)
32 µg/mL: MIC ([2]; GC2235, read-out: MINIMAL INHIBITORY CONCENTRATION MIC, Water) | MIC ([3]; GC2233, read-out: MINIMAL INHIBITORY CONCENTRATION MIC, Water) | MIC ([4]; GC2270, read-out: MINIMAL INHIBITORY CONCENTRATION MIC, Water) | MIC ([7]; GC1073, read-out: MINIMAL INHIBITORY CONCENTRATION MIC, Water) | MIC ([8]; read-out: MINIMAL INHIBITORY CONCENTRATION MIC, Human Serum)
4 to 16 µg/mL: MIC ([19]; read-out: Minimum inhibitory concentration (MIC), E. coli (Human Serum))
8 µg/mL: MIC ([1]; GC2231, read-out: MINIMAL INHIBITORY CONCENTRATION MIC, Human Serum) | MIC ([3]; GC2233, read-out: MINIMAL INHIBITORY CONCENTRATION MIC, Human Serum) | MIC ([4]; GC2270, read-out: MINIMAL INHIBITORY CONCENTRATION MIC, Human Serum) | MIC ([7]; GC1073, read-out: MINIMAL INHIBITORY CONCENTRATION MIC, Human Serum)
0.25 to 4 µg/mL: MIC ([20]; MRSA, read-out: Range of MIC, Staph (Water)) | MIC ([20]; read-out: Minimum inhibitory concentration (MIC), Staph (Water))
0.25 to 2 µg/mL: MIC ([20]; MRSA, read-out: Range of MIC, Staph (Mouse Serum)) | MIC ([20]; read-out: Minimum inhibitory concentration (MIC), Staph (Human Serum))
16 µg/mL: MIC ([6]; GC6465, read-out: MINIMAL INHIBITORY CONCENTRATION MIC, Human Serum)
>64 UG/ML: MINIMAL INHIBITORY CONCENTRATION MIC ([18]; Human Serum) | MINIMAL INHIBITORY CONCENTRATION MIC ([18]; Mouse Serum)
